In assay [1] the test system is Rattus norvegicus. Put plainly: Antidiabetic activity in Sprague-Dawley Rattus norvegicus (rat) assessed as STZ-induced body weight at 5% administered QD for 12 weeks (reference value: 268.6 +/- 9.3 g). The format is functional.
Assay [2] deals with Rattus norvegicus. Put plainly: Antidiabetic activity in Sprague-Dawley Rattus norvegicus (rat) STZ-induced diabetic model assessed as decrease in oral glucose-induced plasma insulin level at 5% administered QD for 12 weeks prior to glucose-challenge measured after 120 min by oral glucose tolerance test relative to control. Format: functional, organism-based.
Assay [3] concerns Rattus norvegicus. Description: Antidiabetic activity in Sprague-Dawley Rattus norvegicus (rat) assessed as STZ-induced fasting plasma triglyceride level at 5% administered QD for 12 weeks (reference value: 54.4 +/- 12.3 […]). Format: functional.
Assay [4] concerns Rattus norvegicus. Put plainly: Antidiabetic activity in Sprague-Dawley Rattus norvegicus (rat) assessed as STZ-induced fasting plasma glucose level at 5% administered QD for 12 weeks (reference value: 318.4 +/- 11.9 mg/dl). Format: functional.
In assay [5] the test system is Rattus norvegicus. Put plainly: Antidiabetic activity in Sprague-Dawley Rattus norvegicus (rat) STZ-induced diabetic model assessed as decrease in oral glucose-induced plasma glucose level at 5% administered QD for 12 weeks prior to glucose-challenge measured after 120 min by oral glucose tolerance test relative to control. The format is functional, organism-based.

The test system of assay [6] is Rattus norvegicus. Put plainly: Antidiabetic activity in Sprague-Dawley Rattus norvegicus (rat) STZ-induced diabetic model assessed as decrease in oral glucose-induced plasma glucose level at 5% administered QD for 6 weeks prior to glucose-challenge measured after 120 min by oral glucose tolerence test relative to control. The format is functional, organism-based.

Assay [7] deals with Rattus norvegicus. Description: Antidiabetic activity in Sprague-Dawley Rattus norvegicus (rat) assessed as STZ-induced fasting plasma free fatty acid level at 5% administered QD for 12 weeks (reference value: 230.8 +/- 16.6 uM). Format: functional.
For assay [8], the system named is Rattus norvegicus. Description: Antidiabetic activity in Sprague-Dawley Rattus norvegicus (rat) assessed as STZ-induced fasting plasma insulin level at 5% administered QD for 12 weeks (reference value: 13.5 +/- 1.6 uU/ml). The format is functional.
Assay [9] concerns Rattus norvegicus. Description: Antidiabetic activity in Sprague-Dawley Rattus norvegicus (rat) STZ-induced diabetic model assessed as decrease in oral glucose-induced plasma insulin level at 5% administered QD for 6 weeks prior to glucose-challenge measured after 120 min by oral glucose tolerance test relative to control. The format is functional, organism-based.

Structures are written as SMILES. Activity calls are given as the source filed them. The calls are words filed in the database; no cut-off is given here.

Consider `O=C(O[C@@H]1Cc2c(O)cc(O)cc2O[C@@H]1c1cc(O)c(O)c(O)c1)c1cc(O)c(O)c(O)c1` [EPIGALOCATECHIN GALLATE], for which the Activity in the assay with Rattus norvegicus [1] was found to be 251.5 g; in the assay on Rattus norvegicus [3], 47.9 mg/dL; in the assay on Rattus norvegicus [4], 169.6 mg/dL; in the assay with Rattus norvegicus [7], 151.1 µM; with Rattus norvegicus [8], 10.2 uU/ml. For the same molecule, the outcome in the assay on Rattus norvegicus [2], in the assay on Rattus norvegicus [5], with Rattus norvegicus [6] and with Rattus norvegicus [9] was Active.
For `O=C(O[C@@H]1Cc2c(O)cc(O)cc2O[C@H]1c1cc(O)c(O)c(O)c1)c1cc(O)c(O)c(O)c1` [GALLOCATECHIN GALLATE], the Activity with Rattus norvegicus [1] was determined as 247.7 g; with Rattus norvegicus [3], 38.3 mg/dL; in the assay with Rattus norvegicus [4], 154.3 mg/dL; in the assay with Rattus norvegicus [7], 133.5 µM; in the assay with Rattus norvegicus [8] it was 8.5 uU/ml. Further, the outcome in the assay on Rattus norvegicus [2], in the assay on Rattus norvegicus [5], with Rattus norvegicus [6] and in the assay with Rattus norvegicus [9] was Active.

The values above are taken from ChEMBL document CHEMBL3046376, “Epimerization of epigallocatechin gallate to gallocatechin gallate and its anti-diabetic activity” (2013).
